Here are results for three molecules from ChEMBL document CHEMBL5365481, “Design, Synthesis, and Activity Evaluation of Novel Dual-Target Inhibitors with Antifungal and Immunoregulatory Properties” (J Med Chem, 2023).

pIC50, pKd: −log10 of the molar value. Values after ≈ are worked out from the molar mass of the structure shown. Active and inactive are the calls of the source. The calls are words filed in the database; no cut-off is given here. A value given as a limit tells only on which side of the number the result lay.

A short description of data set [1]: Toxicity in BALB/c mouse infected with Candida albicans ATCC SC5314 assessed as morphological changes in spleen at 10 ug, ip for 14 days by H and E staining based microscopy. In kind it is organism-based. As to conditions: in vivo, 336 h, dose 10 µg, time 14 day.
Data set [2] deals with Candida albicans. Put plainly: In vivo antifungal activity against Candida albicans ATCC SC5314 infected in BALB/c mouse assessed as fold increase in CD8+ expression level in T cells at 10 ug, ip for 14 days in presence of Biphenyl isopropyl ester by immunohistochemical analysis. In kind it is functional, T-cell. To be noted: dose 10 µg, time 14 day.
Data set [3] concerns Candida albicans. Put plainly: In vivo antifungal activity against Candida albicans ATCC SC5314 infected in BALB/c mouse assessed as fold increase in CD3+ expression level in T cells at 10 ug, ip for 14 days in presence of Biphenyl isopropyl ester by immunohistochemical analysis. In kind it is functional, T-cell. To be noted: dose 10 µg, time 14 day.
Data set [4] deals with Candida albicans. The data set can be described thus: Antifungal activity against Candida albicans ATCC SC5314 assessed as change in structural stability at 1 microM/ml incubated for 48 hrs by absorbance based assay. In kind it is functional, organism-based.
A short description of data set [5]: Toxicity in BALB/c mouse infected with Candida albicans ATCC SC5314 assessed as plasma BUN level at 10 ug, ip for 14 days in presence of Biphenyl isopropyl ester. In kind it is organism-based. As to conditions: in vivo, 336 h, dose 10 µg, time 14 day.
For another data set, the system named is Cryptococcus neoformans. Put plainly: Antifungal activity against Cryptococcus neoformans ZKCC 2209 assessed as inhibition of fungal growth incubated for 72 hrs by CLSI based liquid medium microdilution method. In kind it is functional. Background: Dilution methods test growth across graded concentrations, often in twofold steps.
The target in data set [6] is T1, Lanosterol 14-alpha demethylase (Candida albicans (strain SC5314 / ATCC MYA-2876) (Yeast), UniProt P10613). Put plainly: Inhibition of Candida albicans ATCC SC5314 CYP51 assessed as lanosterol content at 4 ug/ml measured after 16 hrs by GC-MS analysis relative to control. More on the design: scale not given: the % may be the effect or the level left. As to conditions: at 4 µg/mL.
T1 sequence (P10613 whole entry): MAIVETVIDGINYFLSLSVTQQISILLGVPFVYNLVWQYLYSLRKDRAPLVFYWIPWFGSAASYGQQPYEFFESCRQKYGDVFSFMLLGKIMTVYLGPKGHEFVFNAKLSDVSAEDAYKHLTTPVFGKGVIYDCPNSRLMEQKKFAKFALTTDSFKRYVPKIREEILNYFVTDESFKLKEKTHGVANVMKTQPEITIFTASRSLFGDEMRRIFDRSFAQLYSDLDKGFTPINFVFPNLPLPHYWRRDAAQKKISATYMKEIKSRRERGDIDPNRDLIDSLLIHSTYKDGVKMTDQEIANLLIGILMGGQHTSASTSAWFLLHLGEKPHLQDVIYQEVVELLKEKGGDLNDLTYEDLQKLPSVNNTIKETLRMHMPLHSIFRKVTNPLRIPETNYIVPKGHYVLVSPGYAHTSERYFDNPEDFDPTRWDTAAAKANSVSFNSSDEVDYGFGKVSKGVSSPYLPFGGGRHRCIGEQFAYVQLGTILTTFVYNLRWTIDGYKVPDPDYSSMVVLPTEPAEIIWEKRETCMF

In data set [7] the test system is Candida albicans. Put plainly: In vivo antifungal activity against Candida albicans ATCC SC5314 infected in BALB/c mouse assessed as decrease in necrotic cell debris in tissue gap at 10 ug, ip for 14 days by GMS staining based microscopy. In kind it is functional, organism-based. As to conditions: dose 10.0 µg, time 14.0 day.
Data set [8] has as its system Candida albicans. The data set can be described thus: In vivo antifungal activity against Candida albicans ATCC SC5314 infected in BALB/c mouse assessed as decrease in PD-L1 expression level at 10 ug, ip for 14 days in presence of Biphenyl isopropyl ester by Western blot analysis. In kind it is functional, organism-based. As to conditions: dose 10.0 µg, time 14.0 day. A general note: A western blot detects proteins with antibodies after separation by electrophoresis.

Data set [9] is described as follows: Toxicity in BALB/c mouse infected with Candida albicans ATCC SC5314 assessed as morphological changes in liver at 10 ug, ip for 14 days in presence of Biphenyl isopropyl ester by H and E staining based microscopy. In kind it is organism-based. As to conditions: in vivo, 336 h, dose 10 µg, time 14 day.
For data set [10], the system named is Candida albicans. Put plainly: In vivo antifungal activity against Candida albicans ATCC SC5314 infected in BALB/c mouse assessed as reversal of cell morphology to normal state at 10 ug, ip for 14 days in presence of Biphenyl isopropyl ester by GMS staining based microscopy. In kind it is functional, organism-based. To be noted: dose 10.0 µg, time 14.0 day.

Data set [11] relates to Candida albicans. The data set can be described thus: In vivo antifungal activity against Candida albicans ATCC SC5314 infected in BALB/c mouse assessed as decrease in COX2 expression level at 10 ug, ip for 14 days by Western blot analysis. In kind it is functional, organism-based. To be noted: dose 10.0 µg, time 14.0 day.
For data set [12], the system named is Candida albicans. Put plainly: In vivo antifungal activity against Candida albicans ATCC SC5314 infected in BALB/c mouse assessed as decrease in COX2 expression level at 10 ug, ip for 14 days in presence of Biphenyl isopropyl ester by immunohistochemical analysis. In kind it is functional, organism-based. As to conditions: dose 10.0 µg, time 14.0 day.
In data set [13] the test system is Candida albicans. The data set can be described thus: In vivo antifungal activity against Candida albicans ATCC SC5314 infected in BALB/c mouse assessed as decrease in COX2 expression level at 10 ug, ip for 14 days by immunohistochemical analysis. In kind it is functional, organism-based. As to conditions: dose 10.0 µg, time 14.0 day.
The subject of data set [14] is Candida albicans. The data set can be described thus: In vivo antifungal activity against Candida albicans ATCC SC5314 infected in BALB/c mouse assessed as shrinkage in infected region at 10 ug, ip for 14 days. In kind it is functional, organism-based. To be noted: dose 10.0 µg, time 14.0 day.
In data set [15] the test system is Candida albicans. Put plainly: Antifungal activity against Candida albicans ATCC SC5314 assessed as decrease in fungal cell density at 1 microM/ml incubated for 48 hrs by absorbance based assay. In kind it is functional, organism-based.
The next data set concerns Candida tropicalis. The data set can be described thus: Antifungal activity against Candida tropicalis ATCC 1369 assessed as inhibition of fungal growth incubated for 72 hrs by CLSI based liquid medium microdilution method. In kind it is functional.
Data set [16] relates to Candida albicans. Put plainly: In vivo antifungal activity against Candida albicans ATCC SC5314 infected in BALB/c mouse assessed as decrease in IFN-gamma expression level at 10 ug, ip for 14 days in presence of Biphenyl isopropyl ester by immunohistochemical analysis. In kind it is functional, organism-based. To be noted: dose 10.0 µg, time 14.0 day.
A short description of data set [17]: Toxicity in BALB/c mouse infected with Candida albicans ATCC SC5314 assessed as morphological changes in heart at 10 ug, ip for 14 days by H and E staining based microscopy. To be noted: in vivo, 336 h, dose 10 µg, time 14 day. In kind it is organism-based.
Data set [18] addresses T1, Lanosterol 14-alpha demethylase. Put plainly: Inhibition of Candida albicans ATCC SC5314 CYP51 assessed as eburicol content at 4 ug/ml measured after 16 hrs by GC-MS analysis (Rvb= 3.47%). More on the design: scale not given: the % may be the effect or the level left. As to conditions: at 4 µg/mL.
Data set [19] deals with Candida albicans. The data set can be described thus: In vivo antifungal activity against Candida albicans ATCC SC5314 infected in BALB/c mouse assessed as disappearance of nuclei aggregation at 10 ug, ip for 14 days in presence of Biphenyl isopropyl ester by GMS staining based microscopy. In kind it is functional, organism-based. To be noted: dose 10.0 µg, time 14.0 day.

In data set [20] the test system is Candida albicans. Put plainly: Induction of apoptosis in Candida albicans ATCC SC5314 assessed as necrotic cells at 1 microM/ml incubated for 48 hrs by Hoechst 33258/PI staining based flow cytometry (Rvb= 0.03 +/- 0.01%). In kind it is functional. In general terms: Flow cytometry measures light scatter and fluorescence of single cells or particles in a stream.

Data set [21] deals with Candida albicans. Put plainly: Antifungal activity against fluconazole-resistant Candida albicans 901 assessed as inhibition of fungal growth incubated for 72 hrs by CLSI based liquid medium microdilution method. In kind it is functional.
Data set [22] can be described thus: Toxicity in BALB/c mouse infected with Candida albicans ATCC SC5314 assessed as morphological changes in liver at 10 ug, ip for 14 days by H and E staining based microscopy. In kind it is organism-based. As to conditions: in vivo, 336 h, dose 10 µg, time 14 day.
Data set [23] relates to Candida albicans. Put plainly: In vivo antifungal activity against Candida albicans ATCC SC5314 infected in BALB/c mouse assessed as fold increase in CD3+ expression level in T cells at 10 ug, ip for 14 days by immunohistochemical analysis. In kind it is functional, T-cell. To be noted: dose 10 µg, time 14 day.
Data set [24] concerns Candida albicans. The data set can be described thus: In vivo antifungal activity against Candida albicans ATCC SC5314 infected in BALB/c mouse assessed as fold increase in CD8+ expression level in T cells at 10 ug, ip for 14 days by immunohistochemical analysis. In kind it is functional.
The target of data set [25] is Programmed cell death protein 1/Programmed cell death 1 ligand 1 (Homo sapiens, UniProt Q9NZQ7). Put plainly: Inhibition of PD-1/PD-L1 interaction (unknown origin) incubated for 15 mins by ELISA. In kind it is protein-complex assay.
Programmed cell death protein 1/Programmed cell death 1 ligand 1, sequence (Q15116 whole entry): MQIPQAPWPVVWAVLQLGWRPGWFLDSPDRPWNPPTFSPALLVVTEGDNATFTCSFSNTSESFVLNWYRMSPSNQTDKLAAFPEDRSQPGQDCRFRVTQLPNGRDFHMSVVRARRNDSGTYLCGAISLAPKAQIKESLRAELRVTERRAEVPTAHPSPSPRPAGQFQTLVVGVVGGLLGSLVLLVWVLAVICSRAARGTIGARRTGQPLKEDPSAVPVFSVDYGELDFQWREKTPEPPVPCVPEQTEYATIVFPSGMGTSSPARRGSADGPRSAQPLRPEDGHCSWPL
Programmed cell death protein 1/Programmed cell death 1 ligand 1, sequence (Q9NZQ7 whole entry): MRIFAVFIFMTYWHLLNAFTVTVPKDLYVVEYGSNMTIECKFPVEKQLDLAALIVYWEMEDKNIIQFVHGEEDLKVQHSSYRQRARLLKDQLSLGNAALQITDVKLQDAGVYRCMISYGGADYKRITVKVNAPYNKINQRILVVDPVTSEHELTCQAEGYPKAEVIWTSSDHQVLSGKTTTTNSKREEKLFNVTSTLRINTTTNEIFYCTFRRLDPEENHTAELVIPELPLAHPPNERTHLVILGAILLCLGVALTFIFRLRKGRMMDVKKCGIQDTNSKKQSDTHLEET
In data set [26] the target is Programmed cell death 1 ligand 1 (Homo sapiens, UniProt Q9NZQ7). Put plainly: Binding affinity to PD-L1 (unknown origin) assessed as dissociation constant by SPR analysis.
Programmed cell death 1 ligand 1, sequence (Q9NZQ7 whole entry): as above
A further data set relates to Cell membrane. The data set can be described thus: Induction of cell membrane integrity disruption in Candida albicans ATCC SC5314 assessed as seepage of cell contents into external region at 1 microM/ml incubated for 96 hrs by TEM analysis. In kind it is subcellular.
In data set [27] the test system is Candida albicans. Put plainly: In vivo antifungal activity against Candida albicans ATCC SC5314 infected in BALB/c mouse assessed as decrease in PD-L1 expression level at 10 ug, ip for 14 days by immunohistochemical analysis. To be noted: dose 10.0 µg, time 14.0 day. In kind it is functional, organism-based.

Consider `OC(Cn1cncn1)(Cn1cncn1)c1ccc(F)cc1F` [FLUCONAZOLE], for which the Activity result in data set [1] is reported as “Non-Toxic”; in data set [5], 22.8 nmol/L; in data set [6], 30.06%; in data set [9] it was “Non-Toxic”; in data set [17], “Non-Toxic”; in data set [18], 46.52%. Further, the Activity in the data set with Candida albicans [20] was 0.02%; in [22], “Non-Toxic”. The “fold change (FC)” value with Candida albicans [2] and in the data set with Candida albicans [3] was 1.46 throughout. For the same molecule, the outcome with Candida albicans [4], in the data set with Candida albicans [7], in the data set on Candida albicans [8], in the data set on Candida albicans [10], in the data set with Candida albicans [11] and in the data set on Candida albicans [12] was Active. The outcome in the data set on Candida albicans [13], in the data set on Candida albicans [14], with Candida albicans [15], with Candida albicans [16] and with Candida albicans [19] was Active. The results for the MIC50 in the data set with Cryptococcus neoformans, in the data set with Candida tropicalis and with Candida albicans [21] were 1 µg/mL (≈ 3.27 µM), 0.5 µg/mL (≈ 1.63 µM) and more than 8 µg/mL, respectively.

Regarding `CC(=O)c1ccc(C(=O)N2CCC(NC(=O)c3nc(-n4cncn4)c4ccccc4n3)CC2)cc1`, the Activity result in data set [1] is listed as “Non-Toxic”; in data set [6] it was 32.47%; in data set [17] it was “Non-Toxic”; in data set [18], 43.15%; in the data set on Candida albicans [20], 0.02%; in data set [22], “Non-Toxic”. Further, in the data set on Candida albicans [23], the “fold change (FC)” value turned out to be 1.46. The Activity entry in the data set on Candida albicans [24] (T-cell, dose 10.0 µg, time 14.0 day) is “Active”; with Candida albicans [4], “Active”; in the data set on Candida albicans [7] it was “Active”; in the data set on Cell membrane it was “Active”; in the data set with Candida albicans [11], “Active”; in the data set with Candida albicans [27] it was “Active”. The outcome in the data set with Candida albicans [13], in the data set with Candida albicans [14] and in the data set with Candida albicans [15] was Active. Besides, the pIC50 (in general, −log10 of the IC50, conventionally taken in molar units) in [25] was 7.77. In addition, the negative-log Kd (pKd) (in general, the negative decadic logarithm of the Kd, by convention in mol/L) in data set [26] is 7.18. Besides, the figures for the MIC50 in the data set on Cryptococcus neoformans, in the data set on Candida tropicalis and with Candida albicans [21] were 0.5 µg/mL (≈ 1.06 µM), 0.25 µg/mL (≈ 0.532 µM) and 4 µg/mL (≈ 8.52 µM), respectively.

On to `CC(C)c1ccc(C(=O)N2CCC(NC(=O)c3nc(-n4ccnc4)c4ccccc4n3)CC2)cc1`, for which the Activity entry in data set [1] is “Non-Toxic”; in data set [6], 29.53%; in data set [17], “Non-Toxic”; in [18], 45.04%; in the data set on Candida albicans [20], 0.03%; in data set [22], “Non-Toxic”. Also, the “fold change (FC)” value is reported as 1.46 in the data set with Candida albicans [23] and 1.46 in the data set with Candida albicans [24] (dose 10 µg, time 14 day). Also, the result with Candida albicans [4], in the data set with Candida albicans [7], in the data set with Candida albicans [11], with Candida albicans [27], in the data set with Candida albicans [13] and in the data set on Candida albicans [14] was Active. Moreover, in the data set on Candida albicans [15], the outcome was Active. Also, in [25], the pIC50 was 7.41. In addition, the pKd in [26] was 7.22. Moreover, the MIC50 – broadly, the lowest concentration that inhibits either 50% of growth or 50% of the strains tested, depending on the study – is 0.5 µg/mL (≈ 1.07 µM) with Cryptococcus neoformans, 0.25 µg/mL (≈ 0.534 µM) in the data set with Candida tropicalis and 4 µg/mL (≈ 8.54 µM) in the data set with Candida albicans [21].
